pKi: −log10 of the molar value. Read-outs that look alike come from different tables or passages of the source. Blank lines part the entries; values can stand above or below the compound they belong to.
Assays:
[1] = biological target: T1, histamine H1 receptor (bovine) (Bos taurus, UniProt P30546); experiment: Histamine H1 binding assay, bovine cerebellar membranes, [3H]pyrilamine; details: Table 7A; Ki in nM
T1 construct: the receptors were obtained from bovine cerebellar membrane tissue; from tissue; host or cells: bovine cerebellar membranes
T1 sequence (P30546 whole entry): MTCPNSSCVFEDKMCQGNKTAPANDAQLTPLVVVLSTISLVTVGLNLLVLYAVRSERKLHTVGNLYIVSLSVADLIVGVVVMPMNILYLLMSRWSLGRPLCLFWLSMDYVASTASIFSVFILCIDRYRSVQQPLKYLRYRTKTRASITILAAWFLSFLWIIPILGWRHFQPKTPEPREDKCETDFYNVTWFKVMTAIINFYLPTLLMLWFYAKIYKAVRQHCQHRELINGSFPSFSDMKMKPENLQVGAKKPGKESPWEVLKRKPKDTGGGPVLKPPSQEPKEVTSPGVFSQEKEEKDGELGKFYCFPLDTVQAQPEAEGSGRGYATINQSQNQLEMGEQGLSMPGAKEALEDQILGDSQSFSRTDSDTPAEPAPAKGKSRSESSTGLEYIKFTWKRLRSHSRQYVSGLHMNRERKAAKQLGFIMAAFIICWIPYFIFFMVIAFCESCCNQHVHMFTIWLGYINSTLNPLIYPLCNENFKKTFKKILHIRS

[2] = biological target: T2, human recombinant M1 expressed in CHO cells (Homo sapiens, UniProt P11229); experiment: M1 muscarinic receptor binding assay; details: Table 7A, first line of column M1 M2 M3
T2 construct: purchased PerkinElmer, Inc., Wellesley, Mass; host or cells: CHO cells
T2 sequence (P11229 1-460): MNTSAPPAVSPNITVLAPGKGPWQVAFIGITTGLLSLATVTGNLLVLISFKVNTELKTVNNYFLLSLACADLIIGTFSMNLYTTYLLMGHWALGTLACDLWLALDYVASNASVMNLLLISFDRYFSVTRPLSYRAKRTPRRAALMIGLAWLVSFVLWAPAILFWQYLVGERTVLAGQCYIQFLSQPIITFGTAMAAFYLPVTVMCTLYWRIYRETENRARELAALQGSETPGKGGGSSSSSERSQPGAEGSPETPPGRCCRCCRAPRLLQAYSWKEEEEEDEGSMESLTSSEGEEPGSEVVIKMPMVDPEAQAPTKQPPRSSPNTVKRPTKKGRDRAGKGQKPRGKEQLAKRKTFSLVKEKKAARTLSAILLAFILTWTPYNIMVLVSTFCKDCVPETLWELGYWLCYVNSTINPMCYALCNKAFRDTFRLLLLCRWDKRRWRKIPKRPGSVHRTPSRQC

[3] = biological target: T3, human recombinant M2 expressed in CHO cells (Homo sapiens, UniProt P08172); experiment: M2 muscarinic receptor binding assay; details: Table 7A, M1 M2 M3
T3 construct: purchased PerkinElmer, Inc., Wellesley, Mass; host or cells: CHO cells
T3 sequence (P08172 1-466): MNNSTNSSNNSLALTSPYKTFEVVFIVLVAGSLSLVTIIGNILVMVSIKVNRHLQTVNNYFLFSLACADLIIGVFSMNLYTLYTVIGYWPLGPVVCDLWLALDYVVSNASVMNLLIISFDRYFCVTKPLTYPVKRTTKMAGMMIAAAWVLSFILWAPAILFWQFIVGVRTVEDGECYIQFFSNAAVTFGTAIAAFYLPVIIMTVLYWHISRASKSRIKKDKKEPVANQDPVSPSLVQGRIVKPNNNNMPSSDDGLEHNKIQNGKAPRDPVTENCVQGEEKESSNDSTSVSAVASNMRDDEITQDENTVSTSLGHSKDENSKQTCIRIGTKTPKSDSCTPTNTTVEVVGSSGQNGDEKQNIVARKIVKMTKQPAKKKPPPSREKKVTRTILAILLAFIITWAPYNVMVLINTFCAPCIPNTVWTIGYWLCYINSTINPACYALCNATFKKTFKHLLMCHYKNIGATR

[4] = biological target: T4, human recombinant M3 expressed in CHO cells (Homo sapiens, UniProt P20309); experiment: M3 muscarinic receptor binding assay; details: Table 7A, third line of column M1 M2 M3
T4 construct: purchased PerkinElmer, Inc., Wellesley, Mass; host or cells: CHO cells
T4 sequence (P20309 whole entry): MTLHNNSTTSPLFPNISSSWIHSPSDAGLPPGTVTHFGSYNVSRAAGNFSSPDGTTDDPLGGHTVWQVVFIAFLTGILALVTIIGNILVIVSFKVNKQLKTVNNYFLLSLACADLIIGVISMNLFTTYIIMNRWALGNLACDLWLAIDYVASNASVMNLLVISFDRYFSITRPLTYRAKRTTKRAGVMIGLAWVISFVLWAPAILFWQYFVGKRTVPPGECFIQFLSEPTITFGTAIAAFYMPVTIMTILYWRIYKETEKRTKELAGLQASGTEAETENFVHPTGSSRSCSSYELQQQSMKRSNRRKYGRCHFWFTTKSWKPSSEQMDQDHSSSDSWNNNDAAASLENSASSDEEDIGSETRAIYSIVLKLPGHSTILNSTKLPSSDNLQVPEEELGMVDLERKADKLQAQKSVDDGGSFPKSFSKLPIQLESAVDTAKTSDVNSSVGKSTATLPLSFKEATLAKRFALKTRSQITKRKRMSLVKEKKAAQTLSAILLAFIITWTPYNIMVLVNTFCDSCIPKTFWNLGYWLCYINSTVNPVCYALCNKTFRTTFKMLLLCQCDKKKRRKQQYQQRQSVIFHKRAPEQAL

D1 (h) = D1 (h) (Homo sapiens, UniProt P21728); experiment: Dopamine D1 (human recombinant) binding assay; details: Table 7A; unit inferred
D1 (h), sequence (P21728 whole entry): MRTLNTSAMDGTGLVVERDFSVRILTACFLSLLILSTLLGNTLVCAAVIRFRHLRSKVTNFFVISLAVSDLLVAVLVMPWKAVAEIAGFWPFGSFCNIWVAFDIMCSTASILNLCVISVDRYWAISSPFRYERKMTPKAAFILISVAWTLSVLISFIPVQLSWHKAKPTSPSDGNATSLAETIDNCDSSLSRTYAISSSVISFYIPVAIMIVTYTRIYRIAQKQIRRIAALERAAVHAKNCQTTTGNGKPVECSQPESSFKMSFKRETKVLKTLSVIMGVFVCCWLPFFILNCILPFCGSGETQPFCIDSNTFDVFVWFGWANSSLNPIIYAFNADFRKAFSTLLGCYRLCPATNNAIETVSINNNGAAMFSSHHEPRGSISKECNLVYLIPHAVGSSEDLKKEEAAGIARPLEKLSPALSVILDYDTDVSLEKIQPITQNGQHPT
Description: Dopamine, D1 (human recombinant) binding assay was performed according to published procedures. See, e.g., Jarvie, et al. J. Recept Res., 13(1-4): 573-90 (1993); and Billard, et al. Life Sciences, 35(18): 1885-93 (1984), with modifications

D2 (h) = D2 (h) (Homo sapiens, UniProt P14416); experiment: Dopamine D2 binding assay; details: Table 7A; unit inferred
D2 (h), sequence (P14416 whole entry): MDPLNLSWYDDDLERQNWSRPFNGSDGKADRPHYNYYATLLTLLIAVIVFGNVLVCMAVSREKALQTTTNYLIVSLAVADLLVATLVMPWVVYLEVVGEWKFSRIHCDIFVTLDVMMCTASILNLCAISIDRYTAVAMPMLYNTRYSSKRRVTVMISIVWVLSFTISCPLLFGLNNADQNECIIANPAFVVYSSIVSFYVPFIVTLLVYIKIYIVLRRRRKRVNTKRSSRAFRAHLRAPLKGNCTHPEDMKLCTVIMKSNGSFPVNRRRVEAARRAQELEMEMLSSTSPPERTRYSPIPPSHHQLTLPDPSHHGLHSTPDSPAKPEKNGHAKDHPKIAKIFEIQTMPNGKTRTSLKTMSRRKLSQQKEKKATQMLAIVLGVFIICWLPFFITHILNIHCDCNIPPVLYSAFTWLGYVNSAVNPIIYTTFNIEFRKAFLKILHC

5HT2a (rat) = 5HT2a (rat) (Rattus norvegicus, UniProt P14842); experiment: 5HT2a (rat) binding assay; details: Table 7A; unit inferred
5HT2a (rat), sequence (P14842 whole entry): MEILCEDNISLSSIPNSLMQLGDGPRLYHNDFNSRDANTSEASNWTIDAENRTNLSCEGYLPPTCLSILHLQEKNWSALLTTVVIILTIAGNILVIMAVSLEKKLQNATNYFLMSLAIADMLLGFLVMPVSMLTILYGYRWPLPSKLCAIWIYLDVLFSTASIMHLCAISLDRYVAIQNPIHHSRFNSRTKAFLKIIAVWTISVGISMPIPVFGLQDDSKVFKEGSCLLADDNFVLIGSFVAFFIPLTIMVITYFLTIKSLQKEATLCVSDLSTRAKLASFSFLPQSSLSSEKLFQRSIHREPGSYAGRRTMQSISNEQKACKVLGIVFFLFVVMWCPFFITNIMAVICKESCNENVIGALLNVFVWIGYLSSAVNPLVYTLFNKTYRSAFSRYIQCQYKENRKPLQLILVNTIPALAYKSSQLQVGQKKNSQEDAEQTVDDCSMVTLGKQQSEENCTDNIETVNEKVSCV

5HT2a (hctx) = biological target: T5, 5HT2a (hctx) (Homo sapiens, UniProt P28223); experiment: 5HT2a (hctx) binding assay; details: Table 7B; unit inferred
T5 construct: (hctx); from tissue; host or cells: human cortex (my reading of 'hctx')
T5 sequence (P28223 whole entry): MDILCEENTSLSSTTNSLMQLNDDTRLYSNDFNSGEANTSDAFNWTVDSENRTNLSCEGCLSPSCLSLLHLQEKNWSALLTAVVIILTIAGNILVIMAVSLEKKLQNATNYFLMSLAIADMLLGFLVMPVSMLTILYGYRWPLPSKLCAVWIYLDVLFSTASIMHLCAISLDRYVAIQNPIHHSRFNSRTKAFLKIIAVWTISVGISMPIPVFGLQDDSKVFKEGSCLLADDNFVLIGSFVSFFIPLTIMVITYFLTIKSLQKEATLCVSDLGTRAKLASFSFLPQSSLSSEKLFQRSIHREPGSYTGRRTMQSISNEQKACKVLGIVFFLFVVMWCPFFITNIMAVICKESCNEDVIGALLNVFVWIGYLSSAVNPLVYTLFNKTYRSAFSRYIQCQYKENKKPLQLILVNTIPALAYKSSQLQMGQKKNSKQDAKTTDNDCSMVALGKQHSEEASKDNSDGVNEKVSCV

adult, male Wistar rats = experiment: Sleep-wakefulness monitoring (SCORE-2000, EEG/EMG) in rats; type: in vivo, rat; details: minutes; for LONGEST UNINTERRUPTED SLEEP BOUT 10 mg/kg / NREM CUMULATION 10 mg/kg: oral bolus at CT-18, 10 mg/kg; for LONGEST UNINTERRUPTED SLEEP BOUT 30 mg/kg / NREM CUMULATION 30 mg/kg: oral bolus at CT-18, 30 mg/kg
Description: Sleep-wakefulness, locomotor activity and body temperature are monitored in male Wistar rats treated with a test compound (i.e., olanzapine analog) initially at a concentration of 10 mg/kg. Higher and lower doses are assayed for select compounds (e.g., as high as 45 mg/kg, and as low as necessary to establish a no-effect dose). Treatments are administered at CT-18, the peak of the activity dominated period (6 hours after lights-off), and produced soporific (sleep-inducing) effects characterized by increased non-REM sleep time, increased sleep continuity, but without evidence of REM sleep inhibition or rebound insomnia.
Sleep-wakefulness, locomotor activity and body temperature were monitored in vivo with various compounds of the invention. Adult, male Wistar rats (250 g at time of surgery, Charles River Laboratories, Wilmington Mass.) were anesthetized (2% isoflourane in medical grade oxygen) and surgically prepared with a cranial implant to permit chronic electro-encephalogram (EEG) and electromyogram (EMG) recording. Body temperature and locomotor activity were monitored via a miniature transmitter (Mini-Mitter, Bend, Oreg.) surgically placed in the abdomen. The cranial implant consisted of stainless steel screws (two frontal (+3.2 AP from bregma, ±2.0 ML) and two occipital (−6.9 AP, ±5.5 ML)) for EEG recording. Two Teflon®-coated stainless steel wires were positioned under the nuchal trapezoid muscles for EMG recording. All leads were soldered to a miniature connector prior to surgery, and gas sterilized in ethylene oxide. The implant assembly was affixed to the skull with dental acrylic. A minimum of three weeks was allowed for surgical recovery.
Each rat was permanently housed in its own individual recording cage located within separate, ventilated compartments of custom-designed stainless steel cabinets. Each cage was enhanced with a filter-top riser and low-torque swivel-commutator. Food and water were available ad libitum. A 24-hr light-dark cycle (12 hours light, 12 hours dark) was maintained throughout the study. Animals were undisturbed for at least 48 hours before and after treatments.
Sleep and wakefulness were determined using “SCORE-2000™” (Hypnion, Worcester, Mass.)—an internet-based sleep-wake and physiological monitoring system. The system monitored amplified EEG (bandpass 1-30 Hz), integrated EMG (bandpass 10-100 Hz), body temperature and non-specific locomotor activity (LMA) via telemetry, and drinking activity, continuously and simultaneously. Arousal states were classified on-line as non-REM (NREM) sleep, REM sleep, wake, or theta-dominated wake every 10 seconds. Total drinking and locomotor activity counts, and body temperature were quantitiated and recorded each minute, using EEG feature extraction and pattern-matching algorithms. […] The classification algorithm used individually-taught EEG-arousal-state templates, plus EMG criteria to differentiate REM sleep from theta-dominated wakefulness, plus behavior-dependent contextual rules (e.g., if the animal was drinking, it is awake). Drinking and locomotor activity intensity (LMA) were recorded every 10 seconds, while body temperature was recorded each minute. Locomotor activity was detected by a telemetry receiver (Mini-Mitter) beneath the cage. Telemetry measures (LMA and body temperature) were not part of the scoring algorithm; thus, sleep-scoring and telemetry data were independent measures.
Compounds were administered at CT-18, the peak of the activity-dominated period, sufficient time was allowed to view the time course of the treatment effect before lights-on (6 hours post-treatment). Compounds were suspended in sterile 0.25% or 0.5% methylcellulose (1-2 ml/kg). Treatments were administered orally as a bolus.
A parallel group study design was employed. […]

H1 (hr) = biological target: T6, H1 (hr) (Homo sapiens, UniProt P35367); experiment: H1 (hr) Novascreen binding assay; details: Table 7A; Ki in nM
T6 construct: Novascreen, MDS, Cerep (assay providers)
T6 sequence (P35367 whole entry): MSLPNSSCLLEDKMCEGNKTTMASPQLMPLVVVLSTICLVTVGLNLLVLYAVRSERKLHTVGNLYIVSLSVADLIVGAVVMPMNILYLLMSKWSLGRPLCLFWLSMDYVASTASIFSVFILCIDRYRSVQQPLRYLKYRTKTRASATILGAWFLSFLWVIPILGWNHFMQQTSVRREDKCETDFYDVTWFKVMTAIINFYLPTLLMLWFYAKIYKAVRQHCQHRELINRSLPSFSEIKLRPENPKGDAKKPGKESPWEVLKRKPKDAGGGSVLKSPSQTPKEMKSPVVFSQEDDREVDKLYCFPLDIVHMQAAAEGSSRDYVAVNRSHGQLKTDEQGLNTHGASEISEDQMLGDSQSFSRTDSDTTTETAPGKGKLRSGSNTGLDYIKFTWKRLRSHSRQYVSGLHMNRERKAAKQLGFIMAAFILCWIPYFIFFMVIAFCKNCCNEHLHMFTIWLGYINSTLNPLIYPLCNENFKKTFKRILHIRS
Description: Binding assays were performed using various sleep-inducing agents and derivatives selected from those listed in Table 1 in competitive binding assays with known standards for the H1 histamine receptor, and the M1, M2, and M3 muscarinic receptors, alpha 1 and alpha 2 receptors, D1 and D2 receptors, 5HT2a, 5HT2b, 5HT2c, 5HT2c, and 5HT7 receptors.
The histamine H1 assays are described in Chang, et al., Heterogeneity of Histamine H1-Receptors: Species Variation in [^3H]Mepyramine Binding of Brain Membranes. Journal of Neurochemistry. 32: 1653-1663 (1979); Martinez-Mir, M. I., Pollard, H., Moreau, J., et al. Three Histamine Receptors (H1, H2, and H3) Visualized in the Brain of Human and Non-Human Primates. Brain Res. 526: 322-327 (1990); Haaksma, E. E. J., Leurs, R. and Timmerman, H. Histamine Receptors: Subclasses and Specific Ligands. Pharmac. Ther. 47: 73-104 (1990). The muscarinic assays are described in Buckley, N. J., Bonner, T. I., Buckley, C. M., and Brann, M. R. Antagonist Binding Properties of Five Cloned Muscarinic Receptors Expressed in CHO-K1 Cells. Mol. Pharmacol. 35: 469-476 (1989). The assays were performed according to the preceding articles, with the following modifications. Chemical reagents in the following were obtained from Sigma, St. Louis, Mo.

5HT2b (h) = 5HT2b (h) (Homo sapiens, UniProt P41595); experiment: 5HT2b (h) binding assay; details: Table 7B; unit inferred
5HT2b (h), sequence (P41595 whole entry): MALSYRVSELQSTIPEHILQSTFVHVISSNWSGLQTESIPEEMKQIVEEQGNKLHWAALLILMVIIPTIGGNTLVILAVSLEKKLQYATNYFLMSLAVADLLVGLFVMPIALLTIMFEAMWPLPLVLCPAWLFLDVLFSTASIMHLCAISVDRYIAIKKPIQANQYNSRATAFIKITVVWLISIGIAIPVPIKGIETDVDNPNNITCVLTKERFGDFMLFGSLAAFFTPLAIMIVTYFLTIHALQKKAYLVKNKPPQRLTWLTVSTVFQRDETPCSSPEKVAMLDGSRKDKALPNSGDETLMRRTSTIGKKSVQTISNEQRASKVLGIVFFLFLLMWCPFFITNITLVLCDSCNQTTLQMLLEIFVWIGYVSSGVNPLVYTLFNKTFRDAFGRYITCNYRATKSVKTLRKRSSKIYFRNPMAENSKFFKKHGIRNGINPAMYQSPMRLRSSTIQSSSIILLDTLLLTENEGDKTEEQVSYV

[5] = biological target: T2, human recombinant M1 expressed in CHO cells; details: reference compounds; read-out: Ki of reference compounds in the M1 binding assay; cited from earlier work

Structure (SMILES): Cc1cc2c(s1)Nc1ccccc1N=C2N1CCN(CC(C)(C)C(=O)NS(C)(=O)=O)CC1 [Compound 89]
- Ki [1]: 139 nM
- pKi [2]: < 5.00
- pKi [3]: < 5.00
- pKi [4]: < 5.00
- pKi (D1 (h)): 5.19
- pKi (D2 (h)): 6.03
- pKi (5HT2a (rat)): 7.53
- pKi (5HT2a (hctx)): 6.00
- LONGEST UNINTERRUPTED SLEEP BOUT 10 mg/kg (adult, male Wistar rats): 5.7 ± 1.8 min
- NREM CUMULATION 10 mg/kg (adult, male Wistar rats): 14 ± 7 min
- LONGEST UNINTERRUPTED SLEEP BOUT 30 mg/kg (adult, male Wistar rats): 13.6 ± 2.7 min
- NREM CUMULATION 30 mg/kg (adult, male Wistar rats): 37 ± 6 min

Structure (SMILES): Cc1ccc2c(c1)Nc1sc(C)cc1C(N1CCN(CC(C)(C)C(=O)O)CC1)=N2 [Compound 95]
- Ki (H1 (hr)): 200 nM
- pKi (D2 (h)): 6.01
- pKi (5HT2a (hctx)): 7.55
- pKi (5HT2b (h)): 6.62
- LONGEST UNINTERRUPTED SLEEP BOUT 10 mg/kg (adult, male Wistar rats): 15.8 ± 5.2 min
- NREM CUMULATION 10 mg/kg (adult, male Wistar rats): 43 ± 5 min

- Ki [1]: 2310 nM
- pKi [2]: < 5.00
- pKi [3]: < 5.00
- pKi [4]: < 5.00
Structure (SMILES): CC(C)(CN1CCN(C2=Nc3ccccc3Nc3sccc32)CC1)C(=O)O [Compound 1]
- LONGEST UNINTERRUPTED SLEEP BOUT 10 mg/kg (adult, male Wistar rats): -7.0 ± 2.4 min
- NREM CUMULATION 10 mg/kg (adult, male Wistar rats): 6 ± 6 min
- LONGEST UNINTERRUPTED SLEEP BOUT 30 mg/kg (adult, male Wistar rats): 4.1 ± 2.1 min
- NREM CUMULATION 30 mg/kg (adult, male Wistar rats): 12 ± 5 min

Structure (SMILES): Cc1ccc2c(c1)Nc1sc(C)cc1C(N1CCN(CCC(=O)O)CC1)=N2 [Compound 97]
- LONGEST UNINTERRUPTED SLEEP BOUT 10 mg/kg (adult, male Wistar rats): -3.6 ± 2.6 min
- NREM CUMULATION 10 mg/kg (adult, male Wistar rats): 7 ± 3 min

Structure (SMILES): Cc1ccc2c(c1)N=C(N1CCN(CC(C)(C)C(=O)O)CC1)c1cc(C)sc1N2 [Compound 52]
- LONGEST UNINTERRUPTED SLEEP BOUT 10 mg/kg (adult, male Wistar rats): 5.9 ± 2.3 min
- NREM CUMULATION 10 mg/kg (adult, male Wistar rats): 25 ± 5 min

Structure (SMILES): COc1ccc2c(c1)Nc1sc(C)cc1C(N1CCN(CC(C)(C)C(=O)O)CC1)=N2 [Compound 98]
- LONGEST UNINTERRUPTED SLEEP BOUT 10 mg/kg (adult, male Wistar rats): -6.2 ± 2.7 min
- NREM CUMULATION 10 mg/kg (adult, male Wistar rats): 12 ± 7 min

Structure (SMILES): C[N+]1(C)CCC(OC(=O)C(c2ccccc2)c2ccccc2)CC1 [4-DAMP methiodide]
- pKi [5]: 9.57

Structure (SMILES): Cc1cc2c(s1)Nc1ccccc1N=C2N1CCN(CCCC(=O)O)CC1 [Compound 93]
- LONGEST UNINTERRUPTED SLEEP BOUT 10 mg/kg (adult, male Wistar rats): -3.0 ± 2.8 min
- NREM CUMULATION 10 mg/kg (adult, male Wistar rats): 16 ± 6 min
- LONGEST UNINTERRUPTED SLEEP BOUT 30 mg/kg (adult, male Wistar rats): 2.0 ± 1.5 min
- NREM CUMULATION 30 mg/kg (adult, male Wistar rats): 10 ± 5 min

Structure (SMILES): Cc1cc2c(s1)Nc1cc(F)ccc1N=C2N1CCN(CC(C)(C)C(=O)O)CC1 [Compound 101]
- LONGEST UNINTERRUPTED SLEEP BOUT 10 mg/kg (adult, male Wistar rats): 5.9 ± 2.4 min
- NREM CUMULATION 10 mg/kg (adult, male Wistar rats): 51 ± 8 min

— US7807828B2, “Olanzapine analogs and methods of use thereof” (Hypnion, Inc., priority 2005, dated 2010)
